Measured values taken from patent publication US20220105188A1, “TARGET PROTEIN EED DEGRADATION-INDUCING DEGRADUCER, PREPARATION METHOD THEREOF, AND PHARMACEUTICAL COMPOSITION FOR PREVENTING OR TREATING DISEASES RELATED TO EED, EZH2, OR PRC2, COMPRISING SAME AS ACTIVE INGREDIENT” (KOREA RESEARCH INSTITUTE OF CHEMICAL TECHNOLOGY, priority 2019, published 2022).

Biological target: T1, EED (Homo sapiens, UniProt O75530)
T1 construct: 2×10^5 Hela cells were injected into a 12-well plate; endogenous in cells; host or cells: HeLa
T1 sequence (O75530 whole entry): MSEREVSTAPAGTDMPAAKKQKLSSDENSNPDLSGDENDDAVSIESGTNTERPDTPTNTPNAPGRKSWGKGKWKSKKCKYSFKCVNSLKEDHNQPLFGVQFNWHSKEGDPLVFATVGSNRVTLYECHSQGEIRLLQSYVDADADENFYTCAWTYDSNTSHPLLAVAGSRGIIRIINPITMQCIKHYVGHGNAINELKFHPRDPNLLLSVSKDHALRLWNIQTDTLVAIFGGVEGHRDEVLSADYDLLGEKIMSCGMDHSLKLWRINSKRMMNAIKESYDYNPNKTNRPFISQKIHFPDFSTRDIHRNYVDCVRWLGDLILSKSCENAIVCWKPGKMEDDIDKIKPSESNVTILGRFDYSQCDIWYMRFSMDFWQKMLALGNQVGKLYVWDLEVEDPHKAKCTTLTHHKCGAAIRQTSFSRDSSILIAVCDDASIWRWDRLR
Experiment: EED Proteolytic Activity Evaluation 2 (western blot, Hela cells)
Assay type: cell-based
Conditions: 1 nM, 10 nM, 100 nM and 1000 nM, 20 hours of treatment
Method: [Experiment 2] EED Proteolytic Activity Evaluation 2
In order to evaluate the EED proteolytic activity of the compound according to the present invention, an experiment was conducted as follows.
Specifically, 2×10^5 Hela cells were injected into a 12-well plate, and after 8 hours of stabilization, each well was treated with the example compounds to have final concentrations of 1 nM, 10 nM, 100 nM, and 1000 nM. One well was treated with the volume of DMSO contained in the sample corresponding to the highest concentration in the experimental group. After 20 hours of treatment, the cells were collected and lysed using 80 μl of SDS Lysis buffer (50 mM Tris pH8.0, 1% SDS, 1 mM EDTA, 0.5 mM PMSF, and protease inhibitor cocktail) and then sonication (30 sec on/59 sec off), 5 cycles) to prepare a cell lysate, followed by protein quantification through BCA, followed by Western blot, and the results are shown in Table 3. (Maximum EED degradation rate: A: >50%, B: 25-50%, C: <25%)

Compound | EED degradation rate (Maximum EED degradation rate)
Cc1cccc(F)c1CN1C[C@H](c2ccc(N3CCN(CCOCCOCCOCCNC(=O)CNc4ccc5c(c4)C(=O)N(C4CCC(=O)NC4=O)C5=O)CC3)cc2)[C@@H](N(C)C)C1 (stereo partly drawn) [Example 135, N-(2-(2-(2-(2-(4-(4-((3S,4R)-4-(dimethylamino)-1-(2-fluoro-6-methylbenzyl)pyrrolidin-3-yl)phenyl)piperazin-1-yl)ethoxy)ethoxy)ethoxy)ethyl)-2-((2-(2,6-dioxopiperidin-3-yl)-1,3-dioxoisoindolin-5-yl)amino)acetamide] | B (B: 25-50%)
Cc1cccc(F)c1CN1C[C@H](c2ccc(N3CCN(CCC4CCN(C(=O)CNc5ccc6c(c5)C(=O)N(C5CCC(=O)NC5=O)C6=O)CC4)CC3)cc2)[C@@H](N(C)C)C1 (stereo partly drawn) [Example 136, 5-((2-(4-(2-(4-(4-((3S,4R)-4-(dimethylamino)-1-(2-fluoro-6-methylbenzyl)pyrrolidin-3-yl)phenyl)piperazin-1-yl)ethyl)piperidin-1-yl)-2-oxoethyl)amino)-2-(2,6-dioxopiperidin-3-yl)isoindolin-1,3-dione] | A (A: >50%)
Cc1cccc(F)c1CN1C[C@H](c2ccc(N3CCN(C(=O)CCCCCNc4ccc5c(c4)C(=O)N(C4CCC(=O)NC4=O)C5=O)CC3)cc2)[C@@H](N(C)C)C1 (stereo partly drawn) [Example 138, 5-((6-(4-(4-((3S,4R)-4-(dimethylamino)-1-(2-fluoro-6-methylbenzyl)pyrrolidin-3-yl)phenyl)piperazin-1-yl)-6-oxohexyl)amino)-2-(2,6-dioxopiperidin-3-yl)isoindolin-1,3-dione] | B (B: 25-50%)
Cc1cccc(F)c1CN1C[C@H](c2ccc(N3CCN(CC4CCN(c5cccc6c5C(=O)N(C5CCC(=O)NC5=O)C6=O)CC4)CC3)cc2)[C@@H](N(C)C)C1 (stereo partly drawn) [Example 139, 4-(4-((4-(4-((3S,4R)-4-(dimethylamino)-1-(2-fluoro-6-methylbenzyl)pyrrolidin-3-yl)phenyl)piperazin-1-yl)methyl)piperidin-1-yl)-2-(2,6-dioxopiperidin-3-yl)isoindolin-1,3-dione] | C (C: <25%)
Cc1cccc(F)c1CN1C[C@H](c2ccc(N3CCN(C(=O)CCC4CCN(C(=O)CNc5ccc6c(c5)C(=O)N(C5CCC(=O)NC5=O)C6=O)CC4)CC3)cc2)[C@@H](N(C)C)C1 (stereo partly drawn) [Example 140, 5-((2-(4-(3-(4-(4-((3S,4R)-4-(dimethylamino)-1-(2-fluoro-6-methylbenzyl)pyrrolidin-3-yl)phenyl)piperazin-1-yl)-3-oxopropyl)piperidin-1-yl)-2-oxoethyl)amino)-2-(2,6-dioxopiperidin-3-yl)isoindolin-1,3-dione] | A (A: >50%)
Cc1cccc(F)c1CN1C[C@H](c2ccc(N3CCN(C(=O)CCC4CCN(c5cccc6c5C(=O)N(C5CCC(=O)NC5=O)C6=O)CC4)CC3)cc2)[C@@H](N(C)C)C1 (stereo partly drawn) [Example 141, 4-(4-(3-(4-(4-((3S,4R)-4-(dimethylamino)-1-(2-fluoro-6-methylbenzyl)pyrrolidin-3-yl)phenyl)piperazin-1-yl)-3-oxopropyl)piperidin-1-yl)-2-(2,6-dioxopiperidin-3-yl)isoindolin-1,3-dione] | B (B: 25-50%)
Cc1cccc(F)c1CN1C[C@H](c2ccc(N3CCN(C(=O)CC4CCN(c5cccc6c5C(=O)N(C5CCC(=O)NC5=O)C6=O)CC4)CC3)cc2)[C@@H](N(C)C)C1 (stereo partly drawn) [Example 142, 4-(4-(2-(4-(4-((3S,4R)-4-(dimethylamino)-1-(2-fluoro-6-methylbenzyl)pyrrolidin-3-yl)phenyl)piperazin-1-yl)-2-oxoethyl)piperidin-1-yl)-2-(2,6-dioxopiperidin-3-yl)isoindolin-1,3-dione] | C (C: <25%)
